Each structure is given as a SMILES string. Some results are limits rather than exact numbers.

Test [1] deals with T1, Fatty-acid amide hydrolase 1 (Rattus norvegicus, UniProt P97612).
T1 sequence (P97612 whole entry): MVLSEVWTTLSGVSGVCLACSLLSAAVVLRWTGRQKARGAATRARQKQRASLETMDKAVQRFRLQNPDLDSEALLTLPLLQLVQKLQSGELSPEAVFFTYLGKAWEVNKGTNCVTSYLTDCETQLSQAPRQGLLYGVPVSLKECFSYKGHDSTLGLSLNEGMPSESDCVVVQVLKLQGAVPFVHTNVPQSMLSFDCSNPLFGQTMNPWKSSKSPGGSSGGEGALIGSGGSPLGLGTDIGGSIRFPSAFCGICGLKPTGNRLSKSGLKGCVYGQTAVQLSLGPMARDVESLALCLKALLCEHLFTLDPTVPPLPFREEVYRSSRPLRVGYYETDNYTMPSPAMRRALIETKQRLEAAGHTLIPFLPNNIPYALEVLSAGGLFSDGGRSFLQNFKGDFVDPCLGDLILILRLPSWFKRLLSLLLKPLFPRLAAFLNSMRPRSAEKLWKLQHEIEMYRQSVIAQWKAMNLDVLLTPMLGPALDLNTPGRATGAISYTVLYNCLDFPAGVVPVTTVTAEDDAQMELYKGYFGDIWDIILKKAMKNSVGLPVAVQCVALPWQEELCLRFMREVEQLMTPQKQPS
The experiment in a line: Inhibition of rat recombinant FAAH expressed in Escherichia coli.

A short description of test [2]: Selectivity for rat recombinant FAAH over KIAA1363.
Test [3] can be described thus: Selectivity for rat recombinant FAAH over TGH.
The target in test [4] is T2, Fatty-acid amide hydrolase 1 (Homo sapiens, UniProt O00519).
T2 sequence (O00519 whole entry): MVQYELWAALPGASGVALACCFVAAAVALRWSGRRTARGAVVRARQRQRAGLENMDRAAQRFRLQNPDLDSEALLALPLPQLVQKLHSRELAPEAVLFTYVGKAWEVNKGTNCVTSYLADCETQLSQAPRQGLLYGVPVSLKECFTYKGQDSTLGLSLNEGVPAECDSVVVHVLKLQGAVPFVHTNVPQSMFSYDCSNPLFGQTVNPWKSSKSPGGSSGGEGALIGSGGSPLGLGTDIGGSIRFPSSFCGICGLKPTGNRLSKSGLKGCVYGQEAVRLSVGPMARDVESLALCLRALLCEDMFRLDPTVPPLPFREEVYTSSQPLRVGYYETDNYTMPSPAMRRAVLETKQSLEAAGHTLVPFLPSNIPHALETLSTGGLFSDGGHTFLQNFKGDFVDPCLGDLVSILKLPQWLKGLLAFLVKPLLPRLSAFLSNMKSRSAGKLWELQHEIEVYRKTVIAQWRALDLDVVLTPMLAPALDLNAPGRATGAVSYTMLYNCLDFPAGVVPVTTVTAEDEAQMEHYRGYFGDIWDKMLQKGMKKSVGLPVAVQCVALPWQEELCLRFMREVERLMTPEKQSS
The experiment in a line: Inhibition of human FAAH expressed in COS-7 cells.

As to `O=C(CCCCCCc1cccc(Cl)c1Cl)c1ncc(-c2ccccn2)o1`, the inhibition constant (Ki) (commonly a dissociation constant, usually derived from enzyme kinetics or from competition with a known ligand) in test [1] is 0.9 nM; in test [4], 1.2 nM. The Ratio IC50 in test [2] was more than 14000; in test [3] it was 70.

The values are drawn from ChEMBL document CHEMBL1145407, “Structure-activity relationships of alpha-ketooxazole inhibitors of fatty acid amide hydrolase” (J Med Chem, 2007).
